Test results published in patent publication US12459951B2, “Compounds that interact with RAS superfamily proteins for treatment of cancers, inflammatory diseases, rasopathies, and fibrotic disease” (SHY Therapeutics, LLC, priority 2022, dated 2025).

Experiments:
[1] = tested on: Smad2/Smad3 phosphorylation; assay: Phospho-Smad2/3 Inhibition Assay (western blot), Panc-1; assay type: cell-based, human; conditions: at 10 μM, Panc-1 pancreatic cancer cell line; starred symbols = activation
Procedure, shortened: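 Western blotting of lysates (15-50 μg protein) read phosphorylation of Smad2 Ser465/467 and Smad3 Ser423/425. Before lysis, Panc-1 cells got 1 h of 10 ng/ml TGF-b1 following 3 h compound exposure at 37° C (10 μM final, or serial dilutions for IC50, 0.3% DMSO) after overnight 0.5% FBS starvation.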

[2] = tested on: TNF-alpha; assay: TNF-alpha Quantification Assay (ELISA), LPS-stimulated RAW 264.7; assay type: cell-based; conditions: Mus musculus, RAW264.7; at 10 μM; read-out: TNFα: % inh.
[3] = tested on: KRas G12D mutant; assay: Ras GTP Binding Domain Inhibition Assay (Ras Superfamily Assay); conditions: for KRas G12D mutant + SOS: % inh.: with SOS; for KRas G12D mutant: % inh.: without SOS
Procedure, shortened: (§1)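 Ni-plate capture of His-tagged protein (10-30 μg/mL, o/n 4° C); cpd 20 μM or dilution series, 1% DMSO, 3 h RT ± Sos 556-1049 last h; 100 nM Cy-labelled GTP 45 min RT; 3× wash; fluorescence read.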

[4] = tested on: KRas wild type; assay: as above; conditions: for KRas wild type + SOS: % inh.: with SOS; for KRas wild type: % inh.: without SOS
Procedure, shortened: as §1

[5] = molecular target: T1, Rac-1 (Homo sapiens, UniProt P63000); assay: as above; conditions: read-out: Rac-1: % inh.
T1 construct: made in house
Procedure, shortened: as §1

| SMILES | KRas G12D mutant + SOS: % inh. ([3]; 20 μM compound) | KRas G12D mutant: % inh. ([3]; 20 μM compound) | KRas wild type + SOS: % inh. ([4]; 20 μM compound) | KRas wild type: % inh. ([4]; 20 μM compound) | inhibition at 20 µM [5] [%] | KRas G12D mutant + SOS: % inh. ([3]; at 20 μM) | KRas G12D mutant: % inh. ([3]; at 20 μM) | KRas wild type + SOS: % inh. ([4]; at 20 μM) | KRas wild type: % inh. ([4]; at 20 μM) | % inh of Smad2/3 phosphorylation in Panc-1 [1] | inhibition at 10 µM [2] [%] |
| --- | --- | --- | --- | --- | --- | --- | --- | --- | --- | --- | --- |
| COCCNC(=O)c1c(-c2ccn(C)n2)cn2nc(-c3nccn3C)nc(N[C@H]3CC[C@H](OC)C3)c12 (racemic) [Compound 183, rac 4-(((1S,3S)-3-Methoxycyclo-pentyl)amino)-N-(2-methoxyethyl)-2-(1-methyl-1H-imidazol-2-yl)-6-(1-methyl-1H-pyrazol-3-yl)pyrrolo[2,1-f][1,2,4]triazine-5-carboxamide] | A (A = 1-25% inhibition) | A (A = 1-25% inhibition) | A (A = 1-25% inhibition) | 0 (0 = 0% inhibition) | 1 to 25 |  |  |  |  | D* (D* = 76-100% activation) | 25 to 49 |
| COc1cc(Nc2nc(-c3ccccn3)nn3cc(-c4ccn(C(C)C)n4)c(C)c23)ncn1 [Compound 13, 6-(1-Isopropyl-1H-pyrazol-3-yl)-N-(6-methoxypyrimidin-4-yl)-5-methyl-2-(pyridin-2-yl)pyrrolo[2,1-f][1,2,4]triazin-4-amine] | 0 (0 = 0% inhibition) | A (A = 1-25% inhibition) | 0 (0 = 0% inhibition) | A (A = 1-25% inhibition) | 0 |  |  |  |  | 0 (0 = 0% inhibition) | 0 |
| COc1cccc(Nc2nc(-c3ccccn3)nn3cc(-c4ccn(C(C)C)n4)c(C)c23)n1 [Compound 14, 6-(1-Isopropyl-1H-pyrazol-3-yl)-N-(6-methoxypyridin-2-yl)-5-methyl-2-(pyridin-2-yl)pyrrolo[2,1-f][1,2,4]triazin-4-amine] | 0 (0 = 0% inhibition) | A (A = 1-25% inhibition) | A (A = 1-25% inhibition) | 0 (0 = 0% inhibition) | 0 |  |  |  |  | 0 (0 = 0% inhibition) | 0 |
| COc1cccc(-c2cn3nc(-c4nccn4C)nc(O)c3c2C)c1Cl [Compound 15, 6-(2-Chloro-3-methoxyphenyl)-5-methyl-2-(1-methyl-1H-imidazol-2-yl)pyrrolo[2,1-f][1,2,4]triazin-4-ol] | 0 (0 = 0% inhibition) | A (A = 1-25% inhibition) | A (A = 1-25% inhibition) | A (A = 1-25% inhibition) | 0 |  |  |  |  | 0 (0 = 0% inhibition) | 0 |
| COCCNc1nc(-c2nccn2C)nn2cc(-c3cccc(OC)c3Cl)c(C)c12 [Compound 16, 6-(2-Chloro-3-methoxyphenyl)-N-(2-methoxyethyl)-5-methyl-2-(1-methyl-1H-imidazol-2-yl)pyrrolo[2,1-f][1,2,4]triazin-4-amine] | 0 (0 = 0% inhibition) | A (A = 1-25% inhibition) | A (A = 1-25% inhibition) | 0 (0 = 0% inhibition) | 0 |  |  |  |  | 0 (0 = 0% inhibition) | 0 |
| COc1cc(Nc2nc(-c3nccn3C)nn3cc(-c4cccnc4)c(-c4cccnc4)c23)ncn1 [Compound 170, N-(6-Methoxypyrimidin-4-yl)-2-(1-methyl-1H-imidazol-2-yl)-5,6-di(pyridin-3-yl)pyrrolo[2,1-f][1,2,4]triazin-4-amine] | D (D = 76-100% inhibition) | D (D = 76-100% inhibition) | D (D = 76-100% inhibition) | D (D = 76-100% inhibition) | 76 to 100 |  |  |  |  | A (A = 1-25% inhibition) | 0 |

More lines, main results first:

| KRas G12D mutant + SOS: % inh. ([3]; 20 μM compound) | KRas G12D mutant: % inh. ([3]; 20 μM compound) | KRas wild type + SOS: % inh. ([4]; 20 μM compound) | KRas wild type: % inh. ([4]; 20 μM compound) | inhibition at 20 µM [5] [%] | KRas G12D mutant + SOS: % inh. ([3]; at 20 μM) | KRas G12D mutant: % inh. ([3]; at 20 μM) | KRas wild type + SOS: % inh. ([4]; at 20 μM) | KRas wild type: % inh. ([4]; at 20 μM) | SMILES | % inh of Smad2/3 phosphorylation in Panc-1 [1] | inhibition at 10 µM [2] [%] |
| --- | --- | --- | --- | --- | --- | --- | --- | --- | --- | --- | --- |
| 0 (0 = 0% inhibition) | B (B = 26-49% inhibition) | A (A = 1-25% inhibition) | A (A = 1-25% inhibition) | 1 to 25 |  |  |  |  | COCCCNC(=O)c1c(-c2ccn(C)n2)cn2nc(-c3nccn3C)nc(N[C@H]3CC[C@H](OC)C3)c12 (racemic) [Compound 184, rac 4-(((1S,3S)-3-methoxycyclo-pentyl)amino)-N-(3-methoxypropyl)-2-(1-methyl-1H-imidazol-2-yl)-6-(1-methyl-1H-pyrazol-3-yl)pyrrolo[2,1-f][1,2,4]triazine-5-carboxamide] | B* (B* = 26-45% activation) | 25 to 49 |
| 0 (0 = 0% inhibition) | A (A = 1-25% inhibition) | 0 (0 = 0% inhibition) | A (A = 1-25% inhibition) | 0 |  |  |  |  | CO[C@H]1CC[C@H](Nc2nc(-c3nccn3C)nn3cc(-c4ccn(C)n4)c(C(=O)NCCN4CCOCC4)c23)C1 (racemic) [Compound 185, rac 4-(((1S,3S)-3-methoxycyclo-pentyl)amino)-2-(1-methyl-1H-imidazol-2-yl)-6-(1-methyl-1H-pyrazol-3-yl)-N-(2-morpholino-ethyl)pyrrolo[2,1-f][1,2,4]triazine-5-carboxamide] | B* (B* = 26-45% activation) | 25 to 49 |
|  |  |  |  | 26 to 49 | B (B = 26-49% inhibition) | B (B = 26-49% inhibition) | B (B = 26-49% inhibition) | A (A = 1-25% inhibition) | CO[C@@H]1C[C@H]1Nc1nc(-c2nccn2C)nn2cc(-c3cccnc3)c(-c3ccccc3)c12 (racemic) [Compound 190, N-((1R,2R)-2-Methoxycyclopropyl)-2-(1-methyl-1H-imidazol-2-yl)-5-phenyl-6-(pyridin-3-yl)pyrrolo[2,1-f][1,2,4]triazin-4-amine] | A (A = 1-25% inhibition) | 1 to 24 |
|  |  |  |  | 1 to 25 | A (A = 1-25% inhibition) | A (A = 1-25% inhibition) | A (A = 1-25% inhibition) | A (A = 1-25% inhibition) | CO[C@H]1CC[C@@H](Nc2nc(-c3nccn3C)nn3cc(-c4cccnc4)c(-c4ccccc4)c23)C1 (racemic) [Compound 193, rac N-((1R,3S)-3-Methoxycyclopentyl)-2-(1-methyl-1H-imidazol-2-yl)-5-phenyl-6-(pyridin-3-yl)pyrrolo[2,1-f][1,2,4]triazin-4-amine] | A (A = 1-25% inhibition) | 25 to 49 |
|  |  |  |  | 1 to 25 | A (A = 1-25% inhibition) | A (A = 1-25% inhibition) | 0 (0 = 0% inhibition) | A (A = 1-25% inhibition) | CO[C@H]1CC[C@H](Nc2nc(-c3nccn3C)nn3cc(-c4cccnc4)c(-c4ccccc4)c23)C1 (racemic) [Compound 194, rac N-((1S,3S)-3-Methoxycyclopentyl)-2-(1-methyl-1H-imidazol-2-yl)-5-phenyl-6-(pyridin-3-yl)pyrrolo[2,1-f][1,2,4]triazin-4-amine] | A (A = 1-25% inhibition) | 50 to 74 |
|  |  |  |  | 1 to 25 | A (A = 1-25% inhibition) | A (A = 1-25% inhibition) | A (A = 1-25% inhibition) | 0 (0 = 0% inhibition) | CO[C@@H]1C[C@H]1Nc1nc(-c2nccn2C)nn2cc(-c3ccncc3)c(-c3ccccc3)c12 (racemic) [Compound 197, rac N-((1R,2R)-2-methoxycyclopropyl)-2-(1-methyl-1H-imidazol-2-yl)-5-phenyl-6-(pyridin-4-yl)pyrrolo[2,1-f][1,2,4]triazin-4-amine] | C (C = 46-75% inhibition) | 25 to 49 |
|  |  |  |  | 26 to 49 | B (B = 26-49% inhibition) | B (B = 26-49% inhibition) | B (B = 26-49% inhibition) | B (B = 26-49% inhibition) | CO[C@H]1CC[C@@H](Nc2nc(-c3nccn3C)nn3cc(-c4ccncc4)c(-c4ccccc4)c23)C1 (racemic) [Compound 200, rac N-((1R,3S)-3-Methoxycyclopentyl)-2-(1-methyl-1H-imidazol-2-yl)-5-phenyl-6-(pyridin-4-yl)pyrrolo[2,1-f][1,2,4]triazin-4-amine] | A (A = 1-25% inhibition) | 1 to 24 |
|  |  |  |  | 26 to 49 | B (B = 26-49% inhibition) | B (B = 26-49% inhibition) | B (B = 26-49% inhibition) | A (A = 1-25% inhibition) | CO[C@H]1CC[C@H](Nc2nc(-c3nccn3C)nn3cc(-c4ccncc4)c(-c4ccccc4)c23)C1 (racemic) [Compound 201, rac N-((1S,3S)-3-Methoxycyclopentyl)-2-(1-methyl-1H-imidazol-2-yl)-5-phenyl-6-(pyridin-4-yl)pyrrolo[2,1-f][1,2,4]triazin-4-amine] | A (A = 1-25% inhibition) | 50 to 74 |
